In patent publication US8992982B2, “Formulation of indomethacin” (Iceutica Pty Ltd., priority 2009, dated 2015):

System: pain after surgical removal of impacted third molars
Assay: Phase 2 dental pain study: pain relief, 5-point categorical scale (TOTPAR, pain relief score, peak pain relief, time to peak pain relief)
Format: in vivo, human
Conditions: for Pain relief score A Little (1), % / Pain relief score None (0), % / Pain relief score Some (2), % / Pain relief score A Lot (3), % / Pain relief score Complete (4), %: 400 mg; for TOTPAR-8, LS mean difference vs placebo: treatment - placebo
Method: This was a phase-2, multicenter, randomized, double-blind, single-dose, parallel-group, active- and placebo-controlled study to evaluate the efficacy and safety of Indomethacin Nanoformulation Capsules (20 mg and 40 mg) in subjects with postoperative dental pain.
On Day 1, eligible subjects underwent extraction of 2 or more third molars, at least 1 of which had to be a fully or partially bone-impacted mandibular molar. If only 2 molars were removed, then they had to be ipsilateral.
Subjects assessed their baseline pain intensity (VAS) before receiving study drug (predose, Time 0) and their pain intensity (VAS) and pain relief (5-point categorical scale) at 15, 30, and 45 minutes and 1, 1.5, 2, 3, 4, 5, 6, 7, and 8 hours after Time 0 and immediately before the first dose of rescue medication. The 2-stopwatch method was used to record the time to perceptible and time to meaningful pain relief, respectively. Acetaminophen (1000 mg) was permitted as the initial rescue medication. Subjects were encouraged to wait at least 60 minutes after receiving study drug before taking rescue medication. […] Other restrictions included the following: no alcohol use from 24 hours before surgery until discharge on Day 1; nothing by mouth (NPO) from midnight before surgery until 1 hour after surgery; clear liquids only from 1 hour after surgery until 1 hour after dosing; and advancement of diet 1 hour after dosing according to standard practice.
The primary efficacy endpoint was the sum of total pain relief (TOTPAR) over 0 to 8 hours (TOTPAR-8) after Time 0. The TOTPAR was calculated using the pain relief score (5-point categorical scale) at each follow-up time point weighted (multiplied) using the amount of time since the prior assessment.
The secondary efficacy endpoints were as follows: • TOTPAR over 0 to 4 hours (TOTPAR-4) after Time 0 • Visual Analogue Scale (VAS) pain intensity difference (VASPID) at each scheduled time point after Time 0 • Time to onset of analgesia (measured as time to perceptible pain relief confirmed by meaningful pain relief) • VAS pain intensity score at each scheduled time point • VAS summed pain intensity difference (VASSPID) over 0 to 4 hours (VASSPID-4) and over 0 to 8 hours (VASSPID-8) after Time 0 • Pain relief score at each scheduled time point after Time 0 • Peak pain relief • Time to peak pain relief • Time to first perceptible pain relief • Time to meaningful pain relief • Proportion of subjects using rescue medication • Time to first use of rescue medication (duration of analgesia) • Patient's global evaluation of study drug Safety:
The null hypothesis was that TOTPAR over 0 to 8 hours after Time 0 (TOTPAR-8) for placebo would be equal to TOTPAR-8 for 40-mg Indomethacin Nanoformulation Capsules. The null hypothesis was analyzed using analysis of covariance (ANCOVA) models, which included treatment effect and significant covariates. The effect of potential covariates, such as sex, baseline pain intensity, and surgical trauma rating, were assessed using appropriate ANCOVA models. The analysis was based on a 2-sided test at the significance level of 0.05.
The least squares (LS) mean and 95% confidence interval (CI) for each treatment regimen, the mean (LS mean) difference between the 2 treatments, and the associated P value and 95% CI for the mean difference were computed from the ANCOVA model. This analysis utilized primarily the ITT population, and sensitivity analysis utilized the PP population.
Other comparisons between the treatment regimens, including 20-mg Indomethacin Nanoformulation Capsules versus placebo and 400-mg celecoxib capsules versus placebo, were considered secondary but also utilized the ITT population. The primary efficacy variable was also summarized by site, but no P values or statistical tests for site were computed.
Each efficacy endpoint was summarized descriptively by treatment group. […]

For `Cc1ccc(-c2cc(C(F)(F)F)nn2-c2ccc(S(N)(=O)=O)cc2)cc1` [Celecoxib], the “Pain relief score A Little (1), %” value (15 minutes, ITT) was “(21.6) %”, the “Pain relief score None (0), %” value (15 minutes, ITT) was “(74.5) %” and the “Pain relief score Some (2), %” value (15 minutes, ITT) was “(3.9) %”. For the same molecule, the “Pain relief score A Little (1), %” value (30 minutes, ITT) was “(41.2) %”, the “Pain relief score A Lot (3), %” value (30 minutes, ITT) was “(3.9) %” and the “Pain relief score None (0), %” value (30 minutes, ITT) was “(51.0) %”. The “Pain relief score Some (2), %” value (30 minutes, ITT) was “(3.9) %”, the “Pain relief score A Little (1), %” value (45 minutes, ITT) was “(37.3) %” and the “Pain relief score A Lot (3), %” value (45 minutes, ITT) was “(13.7) %”. The “Pain relief score Complete (4), %” value (45 minutes, ITT) was “(2.0) %”, the “Pain relief score None (0), %” value (45 minutes, ITT) was “(27.5) %” and the “Pain relief score Some (2), %” value (45 minutes, ITT) was “(19.6) %”. The “Pain relief score A Little (1), %” value (1 hour, ITT) was “(31.4) %”, the Pain relief score A Lot (3), % (1 hour, ITT) was 25.5% and the “Pain relief score Complete (4), %” value (1 hour, ITT) was “(3.9) %”. The “Pain relief score None (0), %” value (1 hour, ITT) was “(15.7) %”, the “Pain relief score Some (2), %” value (1 hour, ITT) was “(23.5) %” and the “Pain relief score A Little (1), %” value (2 hours, ITT) was “(13.7) %”. The “Pain relief score A Lot (3), %” value (2 hours, ITT) was “(49.0) %”, the “Pain relief score Complete (4), %” value (2 hours, ITT) was “(5.9) %” and the “Pain relief score None (0), %” value (2 hours, ITT) was “(17.6) %”. The “Pain relief score Some (2), %” value (2 hours, ITT) was “(13.7) %”, the “Pain relief score A Little (1), %” value (3 hours, ITT) was “(5.9) %” and the “Pain relief score A Lot (3), %” value (3 hours, ITT) was “(51.0) %”. For the same molecule, the “Pain relief score Complete (4), %” value (3 hours, ITT) was “(5.9) %”, the “Pain relief score None (0), %” value (3 hours, ITT) was “(21.6) %” and the “Pain relief score Some (2), %” value (3 hours, ITT) was “(15.7) %”. The “Pain relief score A Little (1), %” value (4 hours, ITT) was “(7.8) %”, the “Pain relief score A Lot (3), %” value (4 hours, ITT) was “(49.0) %” and the “Pain relief score Complete (4), %” value (4 hours, ITT) was “(9.8) %”. The “Pain relief score None (0), %” value (4 hours, ITT) was “(27.5) %”, the “Pain relief score Some (2), %” value (4 hours, ITT) was “(5.9) %” and the “Pain relief score A Little (1), %” value (5 hours, ITT) was “(3.9) %”. For the same molecule, the “Pain relief score A Lot (3), %” value (5 hours, ITT) was “(43.1) %”, the “Pain relief score Complete (4), %” value (5 hours, ITT) was “(11.8) %” and the “Pain relief score None (0), %” value (5 hours, ITT) was “(31.4) %”. For the same molecule, the “Pain relief score Some (2), %” value (5 hours, ITT) was “(9.8) %”, the “Pain relief score A Little (1), %” value (6 hours, ITT) was “(2.0) %” and the “Pain relief score A Lot (3), %” value (6 hours, ITT) was “(37.3) %”. For the same molecule, the “Pain relief score Complete (4), %” value (6 hours, ITT) was “(17.6) %”, the “Pain relief score None (0), %” value (6 hours, ITT) was “(37.3) %” and the “Pain relief score Some (2), %” value (6 hours, ITT) was “(5.9) %”. The “Pain relief score A Lot (3), %” value (7 hours, ITT) was “(43.1) %”, the “Pain relief score Complete (4), %” value (7 hours, ITT) was “(13.7) %” and the “Pain relief score None (0), %” value (7 hours, ITT) was “(41.2) %”. For the same molecule, the “Pain relief score Some (2), %” value (7 hours, ITT) was “(2.0) %”, the “Pain relief score A Lot (3), %” value (8 hours, ITT) was “(41.2) %” and the “Pain relief score Complete (4), %” value (8 hours, ITT) was “(13.7) %”. For the same molecule, the “Pain relief score None (0), %” value (8 hours, ITT) was “(41.2) %”, the “Pain relief score Some (2), %” value (8 hours, ITT) was “(3.9) %” and the “Time to peak pain relief, Hazard ratio” value (Cox proportional hazards model, vs placebo, ITT) was 1.8. For the same molecule, the “Peak pain relief: A Little (1)” value (ITT) was “(11.8) %”, the “Peak pain relief: A Lot (3)” value (ITT) was “(47.1) %” and the “Peak pain relief: Complete (4)” value (ITT) was “(21.6) %”. For the same molecule, the “Peak pain relief: None (0)” value (ITT) was “(7.8) %”, the “Peak pain relief: Some (2)” value (ITT) was “(11.8) %” and the “Time to peak pain relief: subjects analyzed” value (ITT) was “(58.8) %”. The “Time to peak pain relief: subjects censored” value (ITT) was “(41.2) %”, the “TOTPAR-4, Mean” value (ITT population) was 7.152 and the “TOTPAR-4, Median” value (ITT population) was 8.750. For the same molecule, the “Time to peak pain relief, Mean” value (Kaplan-Meier estimate, ITT) was 3.3 h, the “Time to peak pain relief, Q25” value (Kaplan-Meier estimate, ITT) was 1.50 h and the “Time to peak pain relief, Q50” value (Kaplan-Meier estimate, ITT) was 3.00 h. The “Time to peak pain relief, Q75” value (Kaplan-Meier estimate, ITT) was 5.00 h, the “TOTPAR-8, LS mean” value (Model 1 (primary): ANCOVA, baseline pain intensity as only covariate, ITT) was 14.822 and the “TOTPAR-8, LS mean difference vs placebo” value (Model 1 (primary), ITT) was 11.803. For the same molecule, the “TOTPAR-8, LS mean” value (Model 2: baseline pain intensity, gender and surgical trauma rating as covariates, ITT) was 14.797, the “TOTPAR-8, LS mean difference vs placebo” value (Model 2, ITT) was 11.864 and the “TOTPAR-8, Median” value (Overall, ITT population) was 19.250. For the same molecule, the “TOTPAR-8, Mean” value (Overall, ITT population, single oral dose (celecoxib 400 mg)) was 14.858, the “TOTPAR-8, Mean” value (Site 50048, ITT population) was 15.524 and the “TOTPAR-8, Median” value (Site 50048, ITT population) was 20.500. The “TOTPAR-8, Mean” value (Site 50053, ITT population) was 14.021, the “TOTPAR-8, Median” value (Site 50053, ITT population) was 14.625 and the “TOTPAR-8, Mean” value (Site 50054, ITT population) was 14.639. The “TOTPAR-8, Median” value (Site 50054, ITT population) was 20.750, the “Pain relief score A Little (1), %” value ([…], ITT) was “(17.6) %” and the “Pain relief score A Lot (3), %” value ([…], ITT) was “(31.4) %”. For the same molecule, the “Pain relief score Complete (4), %” value ([…], ITT) was “(3.9) %”, the “Pain relief score None (0), %” value ([…], ITT) was “(17.6) %” and the “Pain relief score Some (2), %” value ([…], ITT) was “(29.4) %”. The “Time point from which pain relief scores were statistically significantly more favorable than placebo” value (onward after Time 0) was no less than 45 min.
